Calls of active or inactive are those of the source. The rule behind the calls is not given here.
Assays:
Rattus norvegicus [1] = test: Induction of gastric emptying of solid meal in Wistar rat gastroparesis model at 100 ug/kg, iv administered immediately post phenol red containing methylcellulose meal intake measured after 15 mins by colorimetric method relative to vehicle-treated control; type: functional, Stomach
[2] = Metabolic stability in human plasma assessed as compound recovery in presence of PBS at 2 hrs by LC-MS analysis; type: ADME, cell-free; settings: read-out: Drug recovery
Cytochrome P450 3A4 = Cytochrome P450 3A4 (Homo sapiens, UniProt P08684); test: Inhibition of human CYP3A4 at 0.0457 to 100 uM; type: ADME
Cytochrome P450 3A4, sequence (P08684 whole entry): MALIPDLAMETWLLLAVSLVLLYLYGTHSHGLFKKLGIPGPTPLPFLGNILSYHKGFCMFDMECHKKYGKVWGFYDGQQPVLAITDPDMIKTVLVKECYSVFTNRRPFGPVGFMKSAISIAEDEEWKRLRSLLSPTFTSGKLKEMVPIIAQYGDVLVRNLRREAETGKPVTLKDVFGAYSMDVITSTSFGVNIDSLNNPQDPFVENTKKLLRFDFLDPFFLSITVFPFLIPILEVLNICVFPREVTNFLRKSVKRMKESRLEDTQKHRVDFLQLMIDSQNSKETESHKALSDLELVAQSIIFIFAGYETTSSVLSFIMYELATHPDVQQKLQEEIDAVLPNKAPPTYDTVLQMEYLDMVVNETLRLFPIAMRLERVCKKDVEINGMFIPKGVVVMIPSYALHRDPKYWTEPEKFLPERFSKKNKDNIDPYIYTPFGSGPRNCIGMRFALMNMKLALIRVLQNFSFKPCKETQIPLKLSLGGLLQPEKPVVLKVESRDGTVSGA

Rattus norvegicus [3] = test: Induction of gastric emptying of solid meal in Wistar rat gastroparesis model at 10 mg/kg, iv administered immediately post phenol red containing methylcellulose meal intake measured after 15 mins by colorimetric method relative to vehicle-treated control; type: functional, Stomach
Rattus norvegicus [4] = test: Gastrokinetic activity in Wistar rat gastroparesis model at 10 mg/kg, iv administered immediately post phenol red containing methylcellulose meal intake measured after 15 mins by colorimetric method relative to vehicle-treated control; type: functional, organism-based

SMILES	Activity (Rattus norvegicus [1])	remaining at 2 h [2]	inhibition (INH) (Cytochrome P450 3A4)	Activity (Rattus norvegicus [3])	Activity (Rattus norvegicus [4])
C[C@@H]1CN[C@@H](C2CC2)C(=O)N(C)[C@H](C)C(=O)N[C@H](Cc2ccc(F)cc2)C(=O)NCCCc2ccccc2O1 [ULIMORELIN]	30 - 39%	99%	Active	–	–
CCN(CC)CCNC(=O)c1cc(Cl)c(N)cc1OC.Cl	–	–	–	41%	Active

Reference: ChEMBL document CHEMBL3879905, “Methods of using macrocyclic modulators of the ghrelin receptor” (2013)
